Here are results for 32 compounds from US20230081390A1, “INHIBITORS OF RAF KINASES” (Kinnate Biopharma Inc., priority 2019, published 2023).

The experiment has as its target human RAF1 (Homo sapiens, UniProt P04049). In words: Protein kinase assay (33P-ATP filter binding), human RAF1, 10-dose IC50. Format: biochemical. Particulars: MEK1 (K97R) substrate 3 micromolar, ATP 10 micromolar, read-out: RAF-1 IC50. Here is the method:
In brief, for each reaction, kinase and substrate were mixed in a buffer containing 20 mM HEPES (pH 7.5), 10 mM MgCl2, 1 mM EGTA, 0.02% Brij35, 0.02 mg/mL BSA, 0.1 mM Na3VO4, 2 mM DTT, and […]. All compounds were solubilized in DMSO. Compounds were then added to each reaction mixture via acoustic dispense using an ECHO 550 nanoliter dispenser. For human RAF1 testing, human MEK1 (K97R) was used as a substrate at a concentration of 3 micromolar, with a final ATP concentration of 10 micromolar. […] Reactions were carried out at room temperature for 2 hr and spotted onto P81 ion exchange cellulose chromatography paper (Reaction Biology). […] The percent remaining kinase activity relative to a vehicle-containing (DMSO) kinase reaction was calculated for each kinase/inhibitor pair. IC50 values were calculated using Prism 5 (GraphPad).

Sequence of human RAF1 (P04049 whole entry): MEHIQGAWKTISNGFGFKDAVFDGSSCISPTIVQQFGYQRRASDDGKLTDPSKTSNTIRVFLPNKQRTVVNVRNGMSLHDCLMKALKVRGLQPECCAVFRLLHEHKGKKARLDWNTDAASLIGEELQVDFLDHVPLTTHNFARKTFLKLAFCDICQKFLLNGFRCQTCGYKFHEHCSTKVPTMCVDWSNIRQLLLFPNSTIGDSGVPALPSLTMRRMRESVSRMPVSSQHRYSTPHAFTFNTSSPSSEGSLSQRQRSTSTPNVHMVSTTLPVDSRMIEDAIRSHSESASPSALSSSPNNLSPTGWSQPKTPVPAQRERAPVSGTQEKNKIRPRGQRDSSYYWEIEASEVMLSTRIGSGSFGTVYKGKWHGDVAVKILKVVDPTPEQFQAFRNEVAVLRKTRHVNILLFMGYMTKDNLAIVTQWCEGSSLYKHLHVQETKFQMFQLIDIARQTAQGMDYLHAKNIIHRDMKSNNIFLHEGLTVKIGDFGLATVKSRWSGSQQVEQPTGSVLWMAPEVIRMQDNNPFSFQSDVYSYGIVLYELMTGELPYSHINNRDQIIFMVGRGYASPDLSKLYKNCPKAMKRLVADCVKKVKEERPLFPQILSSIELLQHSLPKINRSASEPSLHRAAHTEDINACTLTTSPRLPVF

In the case of `Cc1cc(F)c(NC(=O)N2CC[C@@]3(C2)CC(F)(F)C3(F)F)cc1-c1cc(OCCO)nc(N2CCOCC2)c1` (single isomer, unassigned) [Example 106], the IC50 is less than 10 nM.

With `Cc1cc(F)c(NC(=O)N2CCCC3C2C3C(F)(F)F)cc1-c1cc(OCCO)nc(N2CCOCC2)c1` (single isomer, unassigned) [Example 108, N-[2-fluoro-5-[2-(2-hydroxyethoxy)-6-(morpholin-4-yl)pyridin-4-yl]-4-methylphenyl]-7-(trifluoromethyl)-2-azabicyclo[4.1.0]heptane-2-carboxamide], the IC50 lay within 1000 to 10000 nM.

`Cc1cc(F)c(NC(=O)N2CCCC3C2C3C(F)(F)F)cc1-c1cc(OCCO)nc(N2CCOCC2)c1` (single isomer, unassigned) [Example 109, N-[2-fluoro-5-[2-(2-hydroxyethoxy)-6-(morpholin-4-yl)pyridin-4-yl]-4-methylphenyl]-7-(trifluoromethyl)-2-azabicyclo[4.1.0]heptane-2-carboxamide]: the IC50 is less than 10 nM.

On to `Cc1cc(F)c(NC(=O)N2CCCC3C2C3C(F)(F)F)cc1-c1cc(OCCO)nc(N2CCOCC2)c1` (single isomer, unassigned) [Example 110, N-[2-fluoro-5-[2-(2-hydroxyethoxy)-6-(morpholin-4-yl)pyridin-4-yl]-4-methylphenyl]-7-(trifluoromethyl)-2-azabicyclo[4.1.0]heptane-2-carboxamide], for which the IC50 was less than 10 nM.

`Cc1cc(F)c(NC(=O)N2CCCC3C2C3C(F)(F)F)cc1-c1cc(OCCO)nc(N2CCOCC2)c1` (single isomer, unassigned) [Example 111, N-[2-fluoro-5-[2-(2-hydroxyethoxy)-6-(morpholin-4-yl)pyridin-4-yl]-4-methylphenyl]-7-(trifluoromethyl)-2-aabicyclo[4.1.0]heptane-2-carboxamide]: the IC50 is less than 10 nM.

As for `Cc1cc(F)c(NC(=O)N2CCOC(C(F)(F)F)C2C)cc1-c1cc(OCCO)nc(N2CCOCC2)c1` (single isomer, unassigned) [Example 112], the IC50 was less than 10 nM.

Take `Cc1cc(F)c(NC(=O)N2CCOC(C(F)(F)F)C2C)cc1-c1cc(OCCO)nc(N2CCOCC2)c1` (single isomer, unassigned) [Example 113]: the IC50 was less than 10 nM.

`Cc1ccc(NC(=O)N2CC[C@@H](SC(F)(F)F)C2)cc1-c1cc(OCCO)nc(N2CCOCC2)c1` (single isomer, unassigned) [Example 117]: the IC50 was less than 10 nM.

For the compound `Cc1ccc(NC(=O)N2CC[C@H](SC(F)(F)F)C2)cc1-c1cc(OCCO)nc(N2CCOCC2)c1` (single isomer, unassigned) [Example 118], the IC50 was less than 10 nM.

With `Cc1ccc(NC(=O)N2CC[C@@H](C(F)(F)F)C2)cc1-c1cnc(OC2CCOCC2)c(N2CCOCC2)c1` (single isomer, unassigned) [Example 119], the IC50 was less than 10 nM.

On to `Cc1ccc(NC(=O)N2CC[C@H](C(F)(F)F)C2)cc1-c1cnc(OC2CCOCC2)c(N2CCOCC2)c1` (single isomer, unassigned) [Example 120], for which the IC50 was less than 10 nM.

As to `Cc1ccc(NC(=O)N2CCC3(CCC3(F)F)C2)cc1-c1cc(OCCO)nc(N2CCOCC2)c1` (single isomer, unassigned) [Example 121, 1,1-difluoro-N-[3-[2-(2-hydroxyethoxy)-6-(morpholin-4-yl)pyridin-4-yl]-4-methylphenyl]-6-azaspiro[3.4]octane-6-carboxamide], the IC50 was less than 10 nM.

As for `Cc1ccc(NC(=O)N2CCC3(CCC3(F)F)C2)cc1-c1cc(OCCO)nc(N2CCOCC2)c1` (single isomer, unassigned) [Example 122, 1,1-difluoro-N-[3-[2-(2-hydroxyethoxy)-6-(morpholin-4-yl)pyridin-4-yl]-4-methylphenyl]-6-azaspiro[3.4]octane-6-carboxamide], the IC50 was less than 10 nM.

For `Cc1ccc(NC(=O)N2CC[C@@H](OC(F)(F)F)C2)cc1-c1cc(OCCO)nc(N2CCOCC2)c1` (single isomer, unassigned) [Example 124], the IC50 is less than 10 nM.

As for `Cc1cc(F)c(NC(=O)N2CC[C@@H](CC(F)(F)F)C2)cc1-c1cc(O[C@H](C)CO)nc(N2CCOCC2)c1` (single isomer, unassigned) [Example 182], the IC50 was less than 10 nM.

With `Cc1cc(F)c(NC(=O)N2CC[C@H](CC(F)(F)F)C2)cc1-c1cc(OC[C@@H](C)O)nc(N2CCOCC2)c1` (single isomer, unassigned) [Example 183], the IC50 was less than 10 nM.

In the case of `Cc1cc(F)c(NC(=O)N2CC[C@H](CC(F)(F)F)C2)cc1-c1cc(O[C@H](C)CO)nc(N2CCOCC2)c1` (single isomer, unassigned) [Example 184], the IC50 was less than 10 nM.

Regarding `Cc1ccc(NC(=O)N2CC[C@@H](CC(F)(F)F)C2)cc1-c1cnc(OC2CCOCC2)c(N2CCOCC2)c1` (single isomer, unassigned) [Example 193], the IC50 is less than 10 nM.

Turning to `Cc1ccc(NC(=O)N2CC[C@H](CC(F)(F)F)C2)cc1-c1cnc(OC2CCOCC2)c(N2CCOCC2)c1` (single isomer, unassigned) [Example 194], the IC50 is less than 10 nM.

As for `Cc1cc(F)c(NC(=O)N2CCC(CC(F)(F)F)C2)cc1-c1cc(OCCO)nc(N2CCOCC2)c1` (stereo in doubt) [Example 37, (3R)-N-[2-fluoro-5-[2-(2-hydroxyethoxy)-6-(morpholin-4-yl)pyridin-4-yl]-4-methylphenyl]-3-(2,2,2-trifluoroethyl)pyrrolidine-1-carboxamide], the IC50 was less than 10 nM.

For `CC(C#N)=C1CCN(C(=O)Nc2cc(-c3cc(OCCO)nc(N4CCOCC4)c3)c(C)cc2F)C1` (stereo in doubt) [Example 97, (3E)-3-(1-cyanoethylidene)-N-[2-fluoro-5-[2-(2-hydroxyethoxy)-6-(morpholin-4-yl)pyridin-4-yl]-4-methylphenyl]pyrrolidine-1-carboxamide], the IC50 is less than 10 nM.

Regarding `Cc1ccc(NC(=O)N2CC[C@H](OC(F)(F)F)C2)cc1-c1cc(OCC(C)O)nc(N2CCOCC2)c1` (stereo in doubt) [Example 152, (3S)-N-(3-[2-[(2R)-2-hydroxypropoxy]-6-(morpholin-4-yl)pyridin-4-yl]-4-methylphenyl)-3-(trifluoromethoxy)pyrrolidine-1-carboxamide], the IC50 is less than 10 nM.

On to `Cc1ccc(NC(=O)N2CC[C@H](OC(F)(F)F)C2)cc1-c1cc(OC(C)CO)nc(N2CCOCC2)c1` (stereo in doubt) [Example 153, (3S)-N-[3-(2-[[(2R)-1-hydroxypropan-2-yl]oxy]-6-(morpholin-4-yl)pyridin-4-yl)-4-methylphenyl]-3-(trifluoromethoxy)pyrrolidine-1-carboxamide], for which the IC50 is less than 10 nM.

As for `Cc1cc(F)c(NC(=O)N2CC[C@@H](C(F)(F)F)C2)cc1-c1cnc(OCCO)c(N2CCOCC2)c1` [Example 12], the IC50 was less than 10 nM.

With `Cc1cc(F)c(NC(=O)N2CC[C@H](C(F)(F)F)C2)cc1-c1cnc(OCCO)c(N2CCOCC2)c1` [Example 13, (3S)-N-[2-fluoro-5-[6-(2-hydroxyethoxy)-5-(morpholin-4-yl)pyridin-3-yl]-4-methylphenyl]-3-(trifluoromethyl)pyrrolidine-1-carboxamide], the IC50 was less than 10 nM.

Turning to `Cc1cc(F)c(NC(=O)N2CCC3(CC3)C2)cc1-c1cc(OCCO)nc(N2CCOCC2)c1` [Example 18, N-[2-fluoro-5-[2-(2-hydroxyethoxy)-6-(morpholin-4-yl)pyridin-4-yl]-4-methylphenyl]-5-azaspiro[2.4]heptane-5-carboxamide], the concentration for half-maximal inhibition (IC50) is less than 10 nM.

With `Cc1cc(F)c(NC(=O)N2CCC(C)(C)C2)cc1-c1cc(OCCO)nc(N2CCOCC2)c1` [Example 19, N-[2-fluoro-5-[2-(2-hydroxyethoxy)-6-(morpholin-4-yl)pyridin-4-yl]-4-methylphenyl]-3,3-dimethylpyrrolidine-1-carboxamide], the IC50 was less than 10 nM.

Turning to `Cc1cc(F)c(NC(=O)N2CCC(F)(F)CC2)cc1-c1cc(OCCO)nc(N2CCOCC2)c1` [Example 20, 4,4-difluoro-N-[2-fluoro-5-[2-(2-hydroxyethoxy)-6-(morpholin-4-yl)pyridin-4-yl]-4-methylphenyl]piperidine-1-carboxamide], the IC50 lay within 10 to 100 nM.

As for `Cc1cc(F)c(NC(=O)N2CC(C(F)F)C2)cc1-c1cc(OCCO)nc(N2CCOCC2)c1` [Example 21, 3-(difluoromethyl)-N-[2-fluoro-5-[2-(2-hydroxyethoxy)-6-(morpholin-4-yl)pyridin-4-yl]-4-methylphenyl]azetidine-1-carboxamide], the IC50 lay in the range of 10 to 100 nM.

With `Cc1cc(F)c(NC(=O)N2CC(F)(F)C(F)(F)C2)cc1-c1cc(OCCO)nc(N2CCOCC2)c1` [Example 22, 3,3,4,4-tetrafluoro-N-[2-fluoro-5-[2-(2-hydroxyethoxy)-6-(morpholin-4-yl)pyridin-4-yl]-4-methylphenyl]pyrrolidine-1-carboxamide], the IC50 is less than 10 nM.

Turning to `Cc1cc(F)c(NC(=O)N2CCCC(F)(F)C2)cc1-c1cc(OCCO)nc(N2CCOCC2)c1` [Example 24, 3,3-difluroo-N-(2-fluoro-5-(2-(2-hydroxyethoxy)-6-morpholinopyridin-4-yl)-4-methylphenyl)piperidine-1-carboxamide], the IC50 lay in the range of 10 to 100 nM.

For the compound `Cc1cc(F)c(NC(=O)N2CCCC(O)(C(F)(F)F)C2)cc1-c1cc(OCCO)nc(N2CCOCC2)c1` (centres unmarked) [Example 25, N-(2-fluoro-5-(2-(2-hydroxyethoxy)-6-morpholinopyridin-4-yl)-4-methylphenyl)-3-hydroxy-3-(trifluoromethyl)piperidine-1-carboxamide], the IC50 was 10 to 100 nM.

A word on the IC50: it is the point on the concentration scale where inhibition reaches its midpoint.
